Here are results for 26 compounds from patent US20220135591A1, “HETEROCYCLIC COMPOUNDS AS INHIBITORS OF MONOACYLGLYCEROL LIPASE (MAGL)” (Hoffmann-La Roche Inc., priority 2019, published 2022).

For the experiment, the target named is T1, MAGL (recombinant wild-type) (Homo sapiens, UniProt Q99685).
T1 sequence (Q99685 1-303): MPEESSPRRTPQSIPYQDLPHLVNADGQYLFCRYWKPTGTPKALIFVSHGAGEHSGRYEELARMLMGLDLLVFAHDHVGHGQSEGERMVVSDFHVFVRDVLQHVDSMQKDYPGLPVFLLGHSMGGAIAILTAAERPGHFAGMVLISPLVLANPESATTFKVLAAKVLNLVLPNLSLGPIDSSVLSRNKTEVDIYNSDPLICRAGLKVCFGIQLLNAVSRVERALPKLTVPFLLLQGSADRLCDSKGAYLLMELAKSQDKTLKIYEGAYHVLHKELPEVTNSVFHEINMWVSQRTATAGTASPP
Briefly: 4-NPA assay: MAGL inhibitory activity by hydrolysis of 4-nitrophenylacetate, absorbance at 405 nm. Type of experiment: biochemical. The conditions noted are these: 4-NPA assay (values without footnote [b]). The method, then:
Compounds were profiled for MAGL inhibitory activity by measuring the enzymatic activity of MAGL by following the hydrolysis of 4-nitrophenylacetate resulting in 4-nitrophenol, which absorbs at 405-412 nm (G. G. Muccioli, G. Labar, D. M. Lambert, Chem. Bio. Chem. 2008, 9, 2704-2710). This assay is hereinafter abbreviated “4-NPA assay”.
The assay was carried out in 384 well assay plates (black with clear bottom, non-binding surface treated, Corning Ref. 3655) in a total volume of 40 μL. Compound dilutions were made in 100% DMSO (VWR Chemicals 23500.297) in a polypropylene plate in 3-fold dilution steps to give a final concentration range in the assay from 25 μM to 1.7 nM. 1 μL compound dilutions (100% DMSO) were added to 19 μL MAGL (recombinant wild-type) in assay buffer (50 mM TRIS (GIBCO, 15567-027), 1 mM EDTA (Fluka, 03690-100 mL)). The plate was shaked for 1 min at 2000 rpm (Variomag Teleshake) and then incubated for 15 min at RT. To start the reaction, 20 μL 4-Nitrophenlyacetate (Sigma N-8130) in assay buffer with 6% EtOH was added. The final concentrations in the assay were 1 nM MAGL and 300 μM 4-Nitrophenylacetate. After shaking (1 min, 2000 rpm) and 5 min incubation at RT, the absorbance at 405 nm was measured for a first time (Molecular Devices, SpectraMax Paradigm). A second measurement was then done after incubation for 80 min at RT. From the two measurements, the slope was calculated by subtracting the first from the second measurement.

pIC50: −log10 of the molar value.

In general, pIC50 refers to the IC50 on a negative log10 scale, so that one unit is a factor of ten. In the case of `CC(C)(CF)c1nnc(-c2ccc(C(=O)N3CCN(c4nc5nc(Cl)ccc5o4)CC3)cc2)o1` [Example 34, [4-(5-chlorooxazolo[4,5-b]pyridin-2-yl)piperazin-1-yl]-[4-[5-(2-fluoro-1,1-dimethyl-ethyl)-1,3,4-oxadiazol-2-yl]phenyl]methanone; 2,2,2-trifluoroacetic acid], the pIC50 was 6.75.

In the case of `Cc1ccc2oc(N3CCN(C(=O)c4ccc(-c5noc(C6(F)CC6)n5)cc4)CC3)nc2n1` [Example 35, [4-[5-(1-fluorocyclopropyl)-1,2,4-oxadiazol-3-yl]phenyl]-[4-(5-methyloxazolo[4,5-b]pyridin-2-yl)piperazin-1-yl]methanone], the pIC50 is 6.43.

As to `Cc1ccc2oc(N3CCN(C(=O)c4ccc(-c5noc(C6(CF)CC6)n5)cc4)CC3)nc2n1` [Example 36, [4-[5-[1-(fluoromethyl)cyclopropyl]-1,2,4-oxadiazol-3-yl]phenyl]-[4-(5-methyloxazolo[4,5-b]pyridin-2-yl)piperazin-1-yl]methanone], the pIC50 was 6.59.

`O=C(c1ccc(-c2noc(C3(CF)CC3)n2)cc1)N1CCN(c2nc3nc(Cl)ccc3o2)CC1` [Example 37, [4-(5-chlorooxazolo[4,5-b]pyridin-2-yl)piperazin-1-yl]-[4-[5-[1-(fluoromethyl)cyclopropyl]-1,2,4-oxadiazol-3-yl]phenyl]methanone]: the pIC50 was 7.00.

As to `Cc1ccc2oc(N3CCN(C(=O)c4ccc(-c5nc(C(C)(C)C)no5)cc4)CC3)nc2n1` [Example 38, [4-(3-tert-butyl-1,2,4-oxadiazol-5-yl)phenyl]-[4-(5-methyloxazolo[4,5-b]pyridin-2-yl)piperazin-1-yl]methanone], the pIC50 was 7.35.

For the compound `CC(C)(C)c1noc(-c2ccc(C(=O)N3CCN(c4nc5nc(Cl)ccc5o4)CC3)cc2)n1` [Example 39, [4-(3-tert-butyl-1,2,4-oxadiazol-5-yl)phenyl]-[4-(5-chlorooxazolo[4,5-b]pyridin-2-yl)piperazin-1-yl]methanone], the pIC50 is 7.72.

`CC1(Cc2nc(-c3ccc(C(=O)N4CCN(c5nc6nc(Cl)ccc6o5)CC4)cc3)no2)CC1` [Example 40, [4-(5-chlorooxazolo[4,5-b]pyridin-2-yl)piperazin-1-yl]-[4-[5-[(1-methylcyclopropyl)methyl]-1,2,4-oxadiazol-3-yl]phenyl]methanone]: the pIC50 was 8.22.

Consider `CC(C)(C)n1cnc(-c2ccc(C(=O)N3CCN(c4nc5nc(Cl)ccc5o4)CC3)cc2)n1` [Example 41, [4-(1-tert-butyl-1,2,4-triazol-3-yl)phenyl]-[4-(5-chlorooxazolo[4,5-b]pyridin-2-yl)piperazin-1-yl]methanone], for which the pIC50 is 7.54.

In the case of `Cc1ccc2oc(N3CCN(C(=O)c4ccc(-c5ncn(C(C)(C)C)n5)cc4)CC3)nc2n1` [Example 42, [4-(1-tert-butyl-1,2,4-triazol-3-yl)phenyl]-[4-(5-methyloxazolo[4,5-b]pyridin-2-yl)piperazin-1-yl]methanone], the pIC50 was 7.07.

As for `CC(C)(C)Cn1cc(-c2ccc(C(=O)N3CCN(c4nc5nc(Cl)ccc5o4)CC3)cc2)nn1` [Example 43, [4-(5-chlorooxazolo[4,5-b]pyridin-2-yl)piperazin-1-yl]-[4-[1-(2,2-dimethylpropyl)triazol-4-yl]phenyl]methanone], the pIC50 was 8.22.

In the case of `CC(C)(C)Cn1ncc(-c2ccc(C(=O)N3CCN(c4nc5nc(Cl)ccc5o4)CC3)cc2)n1` [Example 44, [4-(5-chlorooxazolo[4,5-b]pyridin-2-yl)piperazin-1-yl]-[4-[2-(2,2-dimethylpropyl)triazol-4-yl]phenyl]methanone], the pIC50 was 8.52.

In the case of `CC1CN(c2nc3nc(Cl)ccc3o2)CCN1C(=O)c1ccc(-c2noc(C(C)(C)C)n2)cc1` (centres unmarked) [Example 45, [4-(5-tert-butyl-1,2,4-oxadiazol-3-yl)phenyl]-[4-(5-chlorooxazolo[4,5-b]pyridin-2-yl)-2-methyl-piperazin-1-yl]methanone], the pIC50 was 7.14.

With `CC1CN(C(=O)c2ccc(-c3noc(C(C)(C)C)n3)cc2)CCN1c1nc2nc(Cl)ccc2o1` (centres unmarked) [Example 46, [4-(5-tert-butyl-1,2,4-oxadiazol-3-yl)phenyl]-[4-(5-chlorooxazolo[4,5-b]pyridin-2-yl)-3-methyl-piperazin-1-yl]methanone], the pIC50 is 7.55.

For `Cc1ccc2oc(N3CCN(C(=O)c4ccc(-c5cnn(C(C)(C)C)c5)cc4)CC3)nc2n1` [Example 47, [4-(1-tert-butylpyrazol-4-yl)phenyl]-[4-(5-methyloxazolo[4,5-b]pyridin-2-yl)piperazin-1-yl]methanone], the pIC50 is 7.43.

Take `CC(C)(C)n1cc(-c2ccc(C(=O)N3CCN(c4nc5nc(Cl)ccc5o4)CC3)cc2)cn1` [Example 48, [4-(1-tert-butylpyrazol-4-yl)phenyl]-[4-(5-chlorooxazolo[4,5-b]pyridin-2-yl)piperazin-1-yl]methanone]: the pIC50 is 7.82.

For `CC1(Cn2cnc(-c3ccc(C(=O)N4CCN(c5nc6nc(Cl)ccc6o5)CC4)cc3)n2)CC1` [Example 49, [4-(5-chlorooxazolo[4,5-b]pyridin-2-yl)piperazin-1-yl]-[4-[1-[(1-methylcyclopropyl)methyl]-1,2,4-triazol-3-yl]phenyl]methanone], the pIC50 is 7.89.

Regarding `CC1(Cn2ncnc2-c2ccc(C(=O)N3CCN(c4nc5nc(Cl)ccc5o4)CC3)cc2)CC1` [Example 50, [4-(5-chlorooxazolo[4,5-b]pyridin-2-yl)piperazin-1-yl]-[4-[2-[(1-methylcyclopropyl)methyl]-1,2,4-triazol-3-yl]phenyl]methanone], the pIC50 was 5.37.

Turning to `Cc1ccc2oc(N3CCN(C(=O)c4ccc(-c5noc(C6(C)CC6)n5)cc4)CC3)nc2n1` [Example 51, [4-[5-(1-methylcyclopropyl)-1,2,4-oxadiazol-3-yl]phenyl]-[4-(5-methyloxazolo[4,5-b]pyridin-2-yl)piperazin-1-yl]methanone], the pIC50 is 7.17.

As for `CC(C)(C)c1cnn(-c2ccc(C(=O)N3CCN(c4nc5nc(Cl)ccc5o4)CC3)cc2)c1` [Example 52, [4-(4-tert-butylpyrazol-1-yl)phenyl]-[4-(5-chlorooxazolo[4,5-b]pyridin-2-yl)piperazin-1-yl]methanone], the pIC50 was 8.30.

Regarding `Cc1ccc2oc(N3CCN(C(=O)c4ccc(-n5cc(C(C)(C)C)cn5)cc4)CC3)nc2n1` [Example 53, [4-(4-tert-butylpyrazol-1-yl)phenyl]-[4-(5-methyloxazolo[4,5-b]pyridin-2-yl)piperazin-1-yl]methanone], the pIC50 is 7.92.

With `Cc1ccc2oc(N3CCN(C(=O)c4ccc(-c5cnn(CC(C)(C)C)c5)cc4)CC3)nc2n1` [Example 54, [4-[1-(2,2-dimethylpropyl)pyrazol-4-yl]phenyl]-[4-(5-methyloxazolo[4,5-b]pyridin-2-yl)piperazin-1-yl]methanone], the pIC50 is 8.22.

Consider `Cc1ccc2oc(N3CCN(C(=O)c4ccc(-n5cnc(C(C)(C)C)c5)cc4)CC3)nc2n1` [Example 55, [4-(4-tert-butylimidazol-1-yl)phenyl]-[4-(5-methyloxazolo[4,5-b]pyridin-2-yl)piperazin-1-yl]methanone], for which the pIC50 is 7.20.

Take `Cc1ccc2oc(N3CCN(C(=O)c4ccc(-c5noc(C(C)(C)C)n5)c(C)c4)CC3)nc2n1` [Example 56, [4-(5-tert-butyl-1,2,4-oxadiazol-3-yl)-3-methyl-phenyl]-[4-(5-methyloxazolo[4,5-b]pyridin-2-yl)piperazin-1-yl]methanone]: the pIC50 is 7.96.

In the case of `Cc1cc(C(=O)N2CCN(c3nc4nc(Cl)ccc4o3)CC2)ccc1-c1noc(C(C)(C)C)n1` [Example 57, [4-(5-tert-butyl-1,2,4-oxadiazol-3-yl)-3-methyl-phenyl]-[4-(5-chlorooxazolo[4,5-b]pyridin-2-yl)piperazin-1-yl]methanone], the pIC50 was 8.30.

For the compound `Cc1ccc2oc(N3CCN(C(=O)c4ccc(-c5noc(C(C)(C)C)n5)c(F)c4)CC3)nc2n1` [Example 58, [4-(5-tert-butyl-1,2,4-oxadiazol-3-yl)-3-fluoro-phenyl]-[4-(5-methyloxazolo[4,5-b]pyridin-2-yl)piperazin-1-yl]methanone], the pIC50 is 7.37.

Take `CC(C)(C)c1nc(-c2ccc(C(=O)N3CCN(c4nc5nc(Cl)ccc5o4)CC3)cc2F)no1` [Example 59, [4-(5-tert-butyl-1,2,4-oxadiazol-3-yl)-3-fluoro-phenyl]-[4-(5-chlorooxazolo[4,5-b]pyridin-2-yl)piperazin-1-yl]methanone]: the pIC50 was 7.82.
